Here are results for 16 compounds from ChEMBL document CHEMBL4004848, “Dregamine and tabernaemontanine derivatives as ABCB1 modulators on resistant cancer cells” (Eur J Med Chem, 2017).

The target of data set [1] is T1, ATP-dependent translocase ABCB1 (Homo sapiens, UniProt P08183). The data set can be described thus: Inhibition of human ABCB1 expressed in mouse L5178Y cells assessed as increase in rhodamine-123 accumulation by measuring side scatter count of cells at 20 uM pretreated for 10 mins followed by rhodamine-123 addition after 20 mins by flow cytometry (reference value: 903). Format: cell-based. Background: A flow cytometer gives signals particle by particle.
T1 sequence (P08183 whole entry): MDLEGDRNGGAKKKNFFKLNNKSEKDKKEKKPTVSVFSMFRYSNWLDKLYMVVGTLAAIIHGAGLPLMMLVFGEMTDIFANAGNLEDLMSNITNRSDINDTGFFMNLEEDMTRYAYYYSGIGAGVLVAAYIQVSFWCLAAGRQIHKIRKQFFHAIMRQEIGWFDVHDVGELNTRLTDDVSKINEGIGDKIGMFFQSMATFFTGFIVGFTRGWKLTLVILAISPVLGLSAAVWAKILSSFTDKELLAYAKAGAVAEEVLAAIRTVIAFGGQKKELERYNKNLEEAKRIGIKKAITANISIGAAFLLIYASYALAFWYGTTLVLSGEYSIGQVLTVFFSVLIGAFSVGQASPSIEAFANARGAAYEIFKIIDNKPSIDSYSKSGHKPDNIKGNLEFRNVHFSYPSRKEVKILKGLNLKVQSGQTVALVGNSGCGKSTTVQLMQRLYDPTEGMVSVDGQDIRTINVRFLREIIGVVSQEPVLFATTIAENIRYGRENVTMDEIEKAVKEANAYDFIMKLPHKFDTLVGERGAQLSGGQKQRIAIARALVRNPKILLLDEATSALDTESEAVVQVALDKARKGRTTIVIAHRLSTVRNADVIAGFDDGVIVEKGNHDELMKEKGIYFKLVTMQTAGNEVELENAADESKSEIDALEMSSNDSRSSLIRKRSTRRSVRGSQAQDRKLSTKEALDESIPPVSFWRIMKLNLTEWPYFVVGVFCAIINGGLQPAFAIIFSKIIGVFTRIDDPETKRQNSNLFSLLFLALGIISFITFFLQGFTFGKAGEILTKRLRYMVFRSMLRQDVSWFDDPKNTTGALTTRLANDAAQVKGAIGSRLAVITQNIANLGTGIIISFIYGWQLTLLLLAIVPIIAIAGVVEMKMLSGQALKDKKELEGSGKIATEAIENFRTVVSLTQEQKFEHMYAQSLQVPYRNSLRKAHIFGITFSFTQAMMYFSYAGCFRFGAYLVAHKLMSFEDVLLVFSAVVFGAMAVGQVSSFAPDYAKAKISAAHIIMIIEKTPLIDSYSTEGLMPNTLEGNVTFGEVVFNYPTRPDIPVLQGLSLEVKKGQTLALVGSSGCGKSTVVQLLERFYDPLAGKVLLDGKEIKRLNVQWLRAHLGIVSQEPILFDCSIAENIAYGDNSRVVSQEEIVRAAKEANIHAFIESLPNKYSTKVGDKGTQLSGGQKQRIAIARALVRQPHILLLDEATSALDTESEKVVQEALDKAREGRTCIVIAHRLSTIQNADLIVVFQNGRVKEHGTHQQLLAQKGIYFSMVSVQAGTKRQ

A further data set concerns NIH3T3. Put plainly: Cytotoxicity against mouse NIH/3T3 cells after 24 hrs by MTT assay. The format is cell-based. As to conditions: NIH3T3, 24 h. For orientation: Tetrazolium dyes change colour on reduction, which living cells bring about.
The target of data set [2] is T1, ATP-dependent translocase ABCB1. Put plainly: Inhibition of human ABCB1 expressed in mouse L5178Y cells assessed as increase in rhodamine-123 accumulation by measuring forward scatter count of cells at 2 uM pretreated for 10 mins followed by rhodamine-123 addition after 20 mins by flow cytometry (reference value: 2206). Format: cell-based.
Data set [3] shares this target. The data set can be described thus: Inhibition of human ABCB1 expressed in mouse L5178Y cells pretreated for 10 mins followed by rhodamine-123 addition after 20 mins by flow cytometry. The format is cell-based.
Data set [4] shares this target. The data set can be described thus: Inhibition of human ABCB1 expressed in mouse L5178Y cells assessed as fluorescence activity ratio at 20 uM pretreated for 10 mins followed by rhodamine-123 addition after 20 mins by flow cytometry. Format: cell-based.
A further data set deals with L5178Y. The data set can be described thus: Cytotoxicity against mouse L5178Y cells after 24 hrs by MTT assay. Format: functional, cell-based.
Data set [5] deals with T1, ATP-dependent translocase ABCB1. Put plainly: Inhibition of human ABCB1 expressed in mouse L5178Y cells assessed as fluorescence activity ratio at 2 uM pretreated for 10 mins followed by rhodamine-123 addition after 20 mins by flow cytometry. Format: cell-based.
For data set [6] the target is unchanged. The data set can be described thus: Inhibition of human ABCB1 expressed in mouse L5178Y cells assessed as increase in rhodamine-123 accumulation by measuring forward scatter count of cells at 20 uM pretreated for 10 mins followed by rhodamine-123 addition after 20 mins by flow cytometry (reference value: 2206). Format: cell-based.
Data set [7] has the same target. The data set can be described thus: Inhibition of human ABCB1 expressed in mouse L5178Y cells assessed as increase in rhodamine-123 accumulation by measuring side scatter count of cells at 2 uM pretreated for 10 mins followed by rhodamine-123 addition after 20 mins by flow cytometry (reference value: 903). The format is cell-based.
Data set [8] shares this target. Put plainly: Inhibition of human ABCB1 expressed in mouse L5178Y cells assessed as potentiation of doxorubicin-induced cytotoxicity by measuring combination index at 2:25 doxorubicin to compound ratio after 48 hrs by MTT assay. The format is cell-based.
Data set [9] in a line: Selectivity index, ratio of IC50 for mouse NIH/3T3 cells to IC50 for mouse L5178Y cells. The format is functional.
A short description of data set [10]: Selectivity index, ratio of IC50 for mouse L5178Y cells to IC50 for human ABCB1 expressed in L5178Y cells.

On to `CC[C@H]1CN(C)[C@H]2Cc3c([nH]c4ccccc34)C(=O)C[C@H]1[C@@H]2C(=O)OC`, for which the Activity in [1] was determined as 1098; in data set [2], 2353; in data set [6], 2240; in data set [7] it was 1081. Moreover, the IC50 (in general, the concentration at which inhibition is half-maximal) in the data set on NIH3T3 was more than 100 µM; in the data set with L5178Y, 82.4 µM. Moreover, the “inhibition (INH)” value in [3] is listed as “Dose-dependent effect”. In addition, the Ratio in [4] is on record as 15.35; in data set [5], 1.79.

For `CC[C@H]1CN(C)[C@H]2Cc3c([nH]c4ccccc34)/C(=N/Nc3ccc(Br)cn3)C[C@H]1[C@@H]2C(=O)OC`, the Activity in data set [1] was determined as 992; in data set [2], 2152; in data set [6], 1947; in [7], 1049. Moreover, the figures for the IC50 with NIH3T3 and with L5178Y were 86.5 µM and 35.6 µM, respectively. In [8], the CI was determined as 0.28. For the same compound, the entries for the “Ratio IC50” value in data set [9] and in data set [10] were 2.43 and 0.89, respectively. Besides, the Ratio worked out at 56.22 in data set [4] and 57.99 in data set [5].

Turning to `CC[C@@H]1CN(C)[C@H]2Cc3c([nH]c4ccccc34)/C(=N/Nc3ccc(Br)cn3)C[C@H]1[C@@H]2C(=O)OC`, the Activity stood at 765 in [1], 2294 in data set [2], 2225 in data set [6] and 804 in data set [7]. Besides, the concentration for half-maximal inhibition (IC50) worked out at 83.2 µM in the data set on NIH3T3 and 29.2 µM in the data set with L5178Y. In addition, in [8], the CI is given as 0.19. Also, the “Ratio IC50” value in data set [9] was determined as 2.85; in [10], 0.78. Moreover, the Ratio is listed as 70.82 in [4] and 84.19 in data set [5].

For the compound `CC[C@@H]1CN(C)[C@H]2Cc3c([nH]c4ccccc34)/C(=N/O)C[C@H]1[C@@H]2C(=O)OC`, the Activity is on record as 781 in data set [1], 2237 in [2], 2304 in [6] and 789 in data set [7]. Moreover, the IC50 in the data set on NIH3T3 is more than 100 µM; in the data set with L5178Y, 60.1 µM. Besides, the “inhibition (INH)” value in [3] is given as “Dose-dependent effect”. Moreover, the CI in [8] turned out to be 0.36. Moreover, the Ratio was 7.31 in data set [4] and 1.26 in [5]. For the same compound, the “Ratio IC50” value in data set [10] is reported as 0.7.

Take `C/C=C/C(=O)O[C@H]1C[C@@H]2[C@@H](CC)CN(C)[C@@H](Cc3c1[nH]c1ccccc31)[C@H]2C(=O)OC`: the Activity in [1] is reported as 1213; in data set [2], 2440; in data set [6], 2447; in data set [7], 1226. The 50% inhibitory concentration (IC50) is more than 100 µM in the data set on NIH3T3 and 90.3 µM in the data set with L5178Y. Further, the “inhibition (INH)” value in data set [3] is “Dose-dependent effect”. The Ratio came to 18.09 in data set [4] and 2.42 in data set [5].

On to `CC[C@H]1CN(C)[C@H]2Cc3c([nH]c4ccccc34)/C(=N/NC(N)=O)C[C@H]1[C@@H]2C(=O)OC`, for which the Activity amounted to 756 in data set [1], 2312 in data set [2], 2380 in data set [6] and 778 in data set [7]. The IC50 with NIH3T3 and in the data set on L5178Y was more than 100 µM each time. In addition, the “inhibition (INH)” value in data set [3] is “Dose-dependent effect”. For the same compound, the Ratio in data set [4] was 2.24; in data set [5], 1.16.

Take `CC[C@H]1CN(C)[C@H]2Cc3c([nH]c4ccccc34)/C(=N/N)C[C@H]1[C@@H]2C(=O)OC`: the Activity in data set [1] was 1037; in [2] it was 2184; in data set [6], 2162; in data set [7], 1025. The IC50 in the data set on NIH3T3 was more than 100 µM; with L5178Y it was 69.8 µM. In data set [3], the “inhibition (INH)” value was “Dose-dependent effect”. In addition, the Ratio in data set [4] came to 46.47; in data set [5], 1.93. The “Ratio IC50” value in data set [10] was 0.95.

For `CC[C@@H]1CN(C)[C@H]2Cc3c([nH]c4ccccc34)C(=O)C[C@H]1[C@@H]2C(=O)OC`, the Activity in data set [1] turned out to be 1033; in data set [2], 2182; in [6], 2180; in [7], 1146. The IC50 is more than 100 µM in the data set with NIH3T3 and 56.8 µM with L5178Y. Moreover, the “inhibition (INH)” value in data set [3] is “Dose-dependent effect”. For the same compound, the values for the Ratio in [4] and in data set [5] were 1.38 and 0.77, respectively.

Consider `CC[C@@H]1CN(C)[C@H]2Cc3c([nH]c4ccccc34)/C(=N/N)C[C@H]1[C@@H]2C(=O)OC`, for which the Activity in data set [1] amounted to 918; in data set [2], 2191; in data set [6], 2172; in data set [7], 927. The IC50 in the data set with NIH3T3 was determined as 95 µM; with L5178Y it was 46.6 µM. In data set [3], the “inhibition (INH)” value is reported as “Dose-dependent effect”. The results for the “Ratio IC50” value in [9] and in data set [10] were 1.36 and 0.96, respectively. The Ratio in data set [4] is on record as 18.46; in data set [5], 1.32.

Consider `CC[C@H]1CN(C)[C@H]2Cc3c([nH]c4ccccc34)/C(=N/O)C[C@H]1[C@@H]2C(=O)OC`, for which the Activity stood at 912 in data set [1], 2156 in data set [2], 2182 in data set [6] and 958 in [7]. For the same compound, the IC50 is 35.8 µM in the data set on NIH3T3 and 13 µM with L5178Y. Moreover, in data set [3], the “inhibition (INH)” value was “Dose-dependent effect”. Also, the figures for the “Ratio IC50” value in data set [9] and in data set [10] were 2.75 and 0.77, respectively. Moreover, the Ratio in [4] amounted to 3.87; in [5], 0.85.

For `CC[C@H]1CN(C)[C@H]2Cc3c(n(CCN(CC)CC)c4ccccc34)C(=O)C[C@H]1[C@@H]2C(=O)OC`, the Activity in data set [1] turned out to be 1192; in data set [2] it was 2415; in [6] it was 2440; in data set [7] it was 1214. The results for the IC50 with NIH3T3 and in the data set on L5178Y were more than 100 µM and 67.1 µM, respectively. Besides, the “inhibition (INH)” value in data set [3] was “Dose-dependent effect”. Moreover, the Ratio in data set [4] is given as 52.93; in [5], 2.56.

Regarding `CC[C@H]1CN(C)[C@H]2Cc3c(n(C(=O)c4cccc(C)c4)c4ccccc34)C(=O)C[C@H]1[C@@H]2C(=O)OC`, the Activity in [1] was determined as 1204; in data set [2], 2436; in [6], 2449; in [7] it was 1197. Also, the IC50 in the data set with NIH3T3 and with L5178Y was more than 100 µM each time. Further, the “inhibition (INH)” value in [3] is listed as “Dose-dependent effect”. Also, the Ratio in data set [4] was found to be 12.1; in [5] it was 0.95.

Take `CC[C@@H]1CN(C)[C@H]2Cc3c([nH]c4ccccc34)/C(=N/NC(N)=O)C[C@H]1[C@@H]2C(=O)OC`: the Activity in data set [1] was 770; in data set [2] it was 2410; in [6], 2389; in data set [7], 793. The IC50 with NIH3T3 and in the data set on L5178Y was more than 100 µM in each case. For the same compound, the “inhibition (INH)” value in data set [3] was “Dose-dependent effect”. Further, the figures for the Ratio in data set [4] and in data set [5] were 2.12 and 1.04, respectively.

Regarding `CC[C@@H]1CN(C)[C@H]2Cc3c([nH]c4ccccc34)[C@@H](OC(=O)C34CC5CC(CC(C5)C3)C4)C[C@H]1[C@@H]2C(=O)OC`, the Activity in data set [1] was 1203; in [2], 2450; in data set [6], 2442; in [7] it was 1209. In addition, the IC50 in the data set on NIH3T3 and in the data set on L5178Y was more than 100 µM in each case. For the same compound, the “inhibition (INH)” value in data set [3] is recorded as “Dose-dependent effect”. The results for the Ratio in [4] and in data set [5] were 8.61 and 1.08, respectively.

Regarding `CC[C@H]1CN(C)[C@H]2Cc3c([nH]c4ccccc34)[C@@H](O)C[C@H]1[C@@H]2C(=O)OC`, the Activity turned out to be 797 in data set [1], 2212 in data set [2], 2199 in data set [6] and 809 in data set [7]. For the same compound, the IC50 in the data set on NIH3T3 and in the data set on L5178Y was more than 100 µM in each case. In addition, the “inhibition (INH)” value in data set [3] is “Dose-dependent effect”. The Ratio in data set [4] was determined as 5.18; in data set [5] it was 1.03.

Turning to `COc1ccc(CCN(C)CCCC(C#N)(c2ccc(OC)c(OC)c2)C(C)C)cc1OC` (stereo not drawn), the Activity in [1] was 1078; in data set [6] it was 2611.
